# US9447106B2, “Substituted pyrazolo[1,5-a]pyrimidines as bruton's tyrosine kinase modulators” (Beigene, Ltd., priority 2013, dated 2016)
# Where a name gives a salt, the structure may show the parent alone.
# Target: phosphorylated Btk at Tyr223 in Ramos cells (Homo sapiens (Human), UniProt Q06187)
# Experiment: Btk pY223 cellular assay (HTRF) in Ramos cells
# Assay type: cell-based
# Conditions: 1 hour compound incubation, pervanadate or Na3VO4 stimulation
# phosphorylated Btk at Tyr223 in Ramos cells, sequence (Q06187 whole entry): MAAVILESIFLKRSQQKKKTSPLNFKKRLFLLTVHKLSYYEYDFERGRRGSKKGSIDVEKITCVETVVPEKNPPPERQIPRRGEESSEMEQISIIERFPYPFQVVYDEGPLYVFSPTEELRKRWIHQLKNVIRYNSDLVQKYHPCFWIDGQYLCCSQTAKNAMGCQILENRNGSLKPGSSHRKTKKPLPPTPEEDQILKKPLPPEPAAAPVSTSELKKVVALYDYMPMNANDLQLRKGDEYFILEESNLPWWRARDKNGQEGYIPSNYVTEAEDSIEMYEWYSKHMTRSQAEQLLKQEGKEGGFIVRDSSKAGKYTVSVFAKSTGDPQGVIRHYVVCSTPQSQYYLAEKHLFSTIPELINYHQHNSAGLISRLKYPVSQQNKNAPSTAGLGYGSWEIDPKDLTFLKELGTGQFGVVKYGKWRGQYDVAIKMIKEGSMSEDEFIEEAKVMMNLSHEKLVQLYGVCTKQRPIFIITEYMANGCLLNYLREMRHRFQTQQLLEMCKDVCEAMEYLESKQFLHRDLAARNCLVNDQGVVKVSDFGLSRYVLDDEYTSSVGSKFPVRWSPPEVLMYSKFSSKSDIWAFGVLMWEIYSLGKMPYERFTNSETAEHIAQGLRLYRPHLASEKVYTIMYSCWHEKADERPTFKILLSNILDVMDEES
row,SMILES,IC50 [nM]
1,"CN(C)CCC(=O)N1CCc2[nH]c3c(C(N)=O)c(-c4ccc(Oc5ccccc5)cc4)nn3c2C1 [Compound 57, 7-(3-(Dimethylamino)propanoyl)-2-(4-phenoxyphenyl)-5,6,7,8-tetrahydro-4H-pyrazolo[5′,1′:2,3]imidazo[4,5-c]pyridine-3-carboxamide trifluoroacetate]",233
2,"CC=CC(=O)N1CCc2[nH]c3c(C(N)=O)c(-c4ccc(Oc5ccccc5)cc4)nn3c2C1 [Compound 58, 7-(But-2-enoyl)-2-(4-phenoxyphenyl)-5,6,7,8-tetrahydro-4H-pyrazolo[5′,1′:2,3]imidazo[4,5-c]pyridine-3-carboxamide]",4.6
3,"CN(C)C/C=C/C(=O)N1CCc2c([nH]c3c(C(N)=O)c(-c4ccc(Oc5ccccc5)cc4)nn23)C1 [Compound 64, (E)-6-(4-(Dimethylamino)but-2-enoyl)-2-(4-phenoxyphenyl)-5,6,7,8-tetrahydro-4H-pyrazolo[1′,5′:1,2]imidazo[4,5-c]pyridine-3-carboxamide trifluoroacetate]",4.8
4,"C=CC(=O)Nc1ccc2c(c1)-n1nc(-c3ccc(Oc4ccccc4)cc3)c(C(N)=O)c1NC2 [Compound 69, 8-Acrylamido-2-(4-phenoxyphenyl)-4,5-dihydropyrazolo[1,5-a]quinazoline-3-carboxamide]",34.4
5,"C=CC(=O)Nc1ccc2c(c1)CC(=O)Nc1c(C(N)=O)c(-c3ccc(Oc4ccccc4)cc3)nn1-2 [Compound 75, 8-Acrylamido-5-oxo-2-(4-phenoxyphenyl)-5,6-dihydro-4H-benzo[f]pyrazolo[1,5-a][1,3]diazepine-3-carboxamide]",223
6,"C=CC(=O)Nc1ccc2c(c1)c(=O)[nH]c1c(C(N)=O)c(-c3ccc(Oc4ccccc4)cc3)nn12 [Compound 78, 7-Acrylamido-5-oxo-2-(4-phenoxyphenyl)-4,5-dihydropyrazolo[1,5-a]quinazoline-3-carboxamide]",140
7,"C=CC(=O)NCC1CNc2c(C(N)=O)c(-c3ccc(Oc4ccccc4)cc3)nn2C1 (stereo not drawn) [Compound 86, 6-(Acrylamidomethyl)-2-(4-phenoxyphenyl)-4,5,6,7-tetrahydro pyrazolo[1,5-a]pyrimidine-3-carboxamide]",4.4
8,"CN(C)C/C=C/C(=O)Nc1ccccc1C1CCNc2c(C(N)=O)c(-c3ccc(Oc4ccccc4)cc3)nn21 (stereo not drawn) [Compound 92, (E)-7-(2-(4-(dimethylamino)but-2-enamido)-phenyl)-2-(4-phenoxyphenyl)-4,5,6,7-tetrahydropyrazolo-[1,5-a]pyrimidine-3-carboxamide]",7
9,"CN(C)C/C=C/C(=O)N1CCc2[nH]c3c(C(N)=O)c(-c4ccc(Oc5ccccc5)cc4)nn3c2CC1 [Compound 122, (E)-7-(4-(dimethylamino)but-2-enoyl)-2-(4-phenoxyphenyl)-4,5,6,7,8,9-hexahydropyrazolo-[1′,5′:1,2]-imidazo[4,5-d]azepine-3-carboxamide]",12.6
10,"CN(C)C/C=C/C(=O)N1CCCc2[nH]c3c(C(N)=O)c(-c4ccc(Oc5ccccc5)cc4)nn3c2C1 [Compound 124, (E)-8-(4-(dimethylamino)but-2-enoyl)-2-(4-phenoxyphenyl)-4,5,6,7,8,9-hexahydropyrazolo-[5′,1′:2,3]-imidazo[4,5-c]azepine-3-carboxamide]",4.6
11,"C=CC(=O)Nc1ccccc1C1CCNc2c(C(N)=O)c(-c3ccc(F)c(F)c3)nn21 (stereo not drawn) [Compound 137, 7-(2-acrylamidophenyl)-2-(3,4-difluorophenyl)-4,5,6,7-tetrahydropyrazolo[1,5-a]pyrimidine-3-carboxamide]",22.7
12,"C=CC(=O)Nc1ccccc1C1CCNc2c(C(N)=O)c(-c3ccc(OCc4ccccn4)c(Cl)c3)nn21 (stereo not drawn) [Compound 146, 7-(2-Acrylamido-phenyl)-2-(3-chloro-4-(pyridin-2-ylmethoxy)phenyl)-4,5,6,7-tetrahydropyrazolo[1,5-a]pyrimidine-3-carboxamide]",4
13,"C=CC(=O)Nc1ccccc1C1CCNc2c(C(N)=O)c(-c3ccc(F)c(Br)c3)nn21 (stereo not drawn) [Compound 152, 7-(2-Acrylamidophenyl)-2-(3-bromo-4-fluorophenyl)-4,5,6,7-tetrahydropyrazolo[1,5-a]pyrimidine-3-carboxamide]",1.8
14,"NC(=O)c1c(-c2ccc(F)c(Cl)c2)nn2c1NCCC2c1ccccc1NC(=O)/C=C/CN1CCCCC1 (stereo not drawn) [Compound 153, (E)-2-(3-Chloro-4-fluorophenyl)-7-(2-(4-(piperidin-1-yl)but-2-enamido)phenyl)-4,5,6,7-tetrahydropyrazolo-[1,5-a]pyrimidine-3-carboxamide]",165
15,"C=CC(=O)Nc1ccccc1C1CCNc2c(C(N)=O)c(-c3ccc(Cl)c(F)c3)nn21 (stereo not drawn) [Compound 154, 7-(2-Acrylamidophenyl)-2-(4-chloro-3-fluorophenyl)-4,5,6,7-tetrahydropyrazolo[1,5-a]pyrimidine-3-carboxamide]",1.5
16,"C=CC(=O)Nc1ccccc1C1CCNc2c(C(N)=O)c(-c3ccc(Cl)c(Cl)c3)nn21 (stereo not drawn) [Compound 156, 7-(2-Acrylamidophenyl)-2-(3,4-dichlorophenyl)-4,5,6,7-tetrahydropyrazolo-[1,5-a]pyrimidine-3-carboxamide]",6.8
17,"C=CC(=O)Nc1ccccc1C1CCNc2c(C(N)=O)c(-c3ccc(F)c(C)c3)nn21 (stereo not drawn) [Compound 157, 7-(2-Acrylamidophenyl)-2-(4-fluoro-3-methylphenyl)-4,5,6,7-tetrahydropyrazolo[1,5-a]pyrimidine-3-carboxamide]",20
18,"C=CC(=O)Nc1ccccc1C1CCNc2c(C(N)=O)c(-c3ccc(Cl)c(OC)c3)nn21 (stereo not drawn) [Compound 160, 7-(2-Acrylamidophenyl)-2-(4-chloro-3-methoxyphenyl)-4,5,6,7-tetrahydropyrazolo[1,5-a]pyrimidine-3-carboxamide]",1.3
19,"C=CC(=O)Nc1ccccc1C1CCNc2c(C(N)=O)c(-c3ccc(C(F)(F)F)c(Cl)c3)nn21 (stereo not drawn) [Compound 162, 7-(2-Acrylamidophenyl)-2-(3-chloro-4-(trifluoromethyl)phenyl)-4,5,6,7-tetrahydropyrazolo[1,5-a]pyrimidine-3-carboxamide]",3.2

# Other lines, results leading:
row,IC50 [nM],SMILES
1,23.6,"C=CC(=O)Nc1ccccc1C1CCNc2c(C(N)=O)c(-c3ccc(Oc4ccc(F)cc4)cc3)nn21 (stereo not drawn) [Compound 12, 7-(2-Acrylamidophenyl)-2-(4-(4-fluorophenoxyl)phenyl)-4,5,6,7-tetrahydropyrazolo[1,5-a]pyrimidine-3-carboxamide]"
2,7.9,C=CC(=O)N(C)CC1CCNc2c(C(N)=O)c(-c3ccc(Oc4ccccc4)cc3)nn21 (stereo not drawn) [Compound 35]
3,75.8,"C=CC(=O)N1CCC2(CCNc3c(C(N)=O)c(-c4ccc(Oc5ccccc5)cc4)nn32)CC1 [Compound 43, 1-Acryloyl-2′-(4-phenoxyphenyl)-5′,6′-dihydro-4′H-spiro[piperidine-4,7′-pyrazolo[1,5-a]pyrimidine]-3′-carboxamide]"
4,22.6,"C=CC(=O)N1CC2(CNc3c(C(N)=O)c(-c4ccc(Oc5ccccc5)cc4)nn32)C1 [Compound 46, 1-Acryloyl-6′-(4-phenoxyphenyl)-1′,2′-dihydrospiro[azetidine-3,3′-imidazo[1,2-b]pyrazole]-7′-carboxamide]"
5,73.2,"C=CC(=O)NC1CNc2c(C(N)=O)c(-c3ccc(Oc4ccccc4)cc3)nn2C1 (stereo not drawn) [Compound 85, 6-Acrylamido-2-(4-phenoxyphenyl)-4,5,6,7-tetrahydropyrazolo[1,5-a]pyrimidine-3-carboxamide]"
6,14,"C=CC(=O)N1CCCC1C1CCNc2c(C(N)=O)c(-c3ccc(Oc4ccccc4)cc3)nn21 (stereo not drawn) [Compound 103, 7-(1-acryloylpyrrolidin-2-yl)-2-(4-phenoxyphenyl)-4,5,6,7-tetrahydropyrazolo-[1,5-a]pyrimidine-3-carboxamide]"
7,20.6,"C=CC(=O)N1CC(C2CCNc3c(C(N)=O)c(-c4ccc(OCc5ccccc5)cc4)nn32)C1 (stereo not drawn) [Compound 104, 7-(1-acryloylazetidin-3-yl)-2-(4-(benzyloxy)phenyl)-4,5,6,7-tetrahydropyrazolo-[1,5-a]pyrimidine-3-carboxamide]"
8,30.3,"C=CC(=O)N1CC(C2CCNc3c(C(N)=O)c(-c4ccc(Oc5ccc(Cl)cc5)cc4)nn32)C1 (stereo not drawn) [Compound 106, 7-(1-acryloylazetidin-3-yl)-2-(4-(4-chlorophenoxy)-phenyl)-4,5,6,7-tetrahydropyrazolo[1,5-a]pyrimidine-3-carboxamide]"
9,11.2,"C=CC(=O)N1CC(C2CCNc3c(C(N)=O)c(-c4ccc(Oc5cccc(Cl)c5)cc4)nn32)C1 (stereo not drawn) [Compound 107, 7-(1-acryloylazetidin-3-yl)-2-(4-(3-chlorophenoxy)phenyl)-4,5,6,7-tetrahydropyrazolo[1,5-a]pyrimidine-3-carboxamide]"
10,6.2,"C=CC(=O)N1CC(C2CCNc3c(C(N)=O)c(-c4ccc(Oc5ccc(Cl)c(Cl)c5)cc4)nn32)C1 (stereo not drawn) [Compound 132, 7-(1-acryloylazetidin-3-yl)-2-(4-(3,4-dichlorophenoxy)phenyl)-4,5,6,7-tetrahydropyrazolo[1,5-a]pyrimidine-3-carboxamide]"
11,2.4,"C=CC(=O)N1CC(C2CCNc3c(C(N)=O)c(-c4ccc(Oc5ccccc5C#N)cc4)nn32)C1 (stereo not drawn) [Compound 135, 7-(1-acryloylazetidin-3-yl)-2-(4-(2-cyanophenoxy)phenyl)-4,5,6,7-tetrahydropyrazolo[1,5-a]pyrimidine-3-carboxamide]"
12,7.6,"C=CC(=O)N1CCC(C2(C)CCNc3c(C(N)=O)c(-c4ccc(Oc5ccccc5)cc4)nn32)CC1 (stereo not drawn) [Compound 138, 7-(1-acryloylpiperidin-4-yl)-7-methyl-2-(4-phenoxyphenyl)-4,5,6,7-tetrahydropyrazolo[1,5-a]pyrimidine-3-carboxamide]"
13,3.1,"C=CC(=O)N1CC(C2CCNc3c(C(N)=O)c(-c4ccc(Oc5ccccc5)c(Cl)c4)nn32)C1 (stereo not drawn) [Compound 139, 7-(1-acryloylazetidin-3-yl)-2-(3-chloro-4-phenoxyphenyl)-4,5,6,7-tetrahydropyrazolo[1,5-a]pyrimidine-3-carboxamide]"
14,4.1,"C=CC(=O)NCC1(C)CCNc2c(C(N)=O)c(-c3ccc(Oc4ccccc4)cc3)nn21 (stereo not drawn) [Compound 143, 7-(acrylamidomethyl)-7-methyl-2-(4-phenoxyphenyl)-4,5,6,7-tetrahydropyrazolo[1,5-a]pyrimidine-3-carboxamide]"
